One test addresses mA2a/CHO (Mus musculus (Mouse), UniProt Q60613). Kind of test: cAMP inhibition assay in mA2a/CHO cells, 10 μM adenosine.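 Also: compounds preincubated 30 min at 37 °C before the adenosine challenge, then 30 min further stimulation, readout after 60 min detection reagent incubation at room temperature in 384-well plates.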 The format is cell-based. Particulars: read-out: cAMP & FLIPR IC50 (nM) mA2a.
The target in a further test is hA2a/CHO (Homo sapiens (Human), UniProt P29274). Kind of test: cAMP inhibition assay in hA2a/CHO cells, 10 μM adenosine.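 Also: compounds added to cells 30 min ahead of adenosine, then a further 30 min at 37 °C with adenosine before cAMP detection.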 The format is cell-based. Particulars: read-out: cAMP & FLIPR IC50 (nM) hA2a.
hA2a/CHO, sequence (P29274 whole entry): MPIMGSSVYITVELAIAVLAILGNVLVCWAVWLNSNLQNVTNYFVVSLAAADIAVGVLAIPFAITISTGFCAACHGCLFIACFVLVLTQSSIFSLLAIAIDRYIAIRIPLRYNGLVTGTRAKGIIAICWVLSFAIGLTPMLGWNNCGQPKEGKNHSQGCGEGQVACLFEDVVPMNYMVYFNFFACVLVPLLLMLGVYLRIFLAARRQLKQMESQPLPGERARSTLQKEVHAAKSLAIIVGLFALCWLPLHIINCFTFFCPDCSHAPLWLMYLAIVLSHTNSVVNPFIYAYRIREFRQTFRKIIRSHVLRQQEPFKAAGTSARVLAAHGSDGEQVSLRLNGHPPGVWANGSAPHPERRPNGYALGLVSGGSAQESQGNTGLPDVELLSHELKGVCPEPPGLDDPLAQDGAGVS
Test [1] addresses hADORA1/CHO (hA1 expressing) cells (Homo sapiens (Human), UniProt P30542). The test is described as follows: cell-based. Particulars: FLIPR inhibition, 10 μM adenosine, read-out: cAMP & FLIPR IC50 (nM) hA1.
A further test addresses hA2b/CHO (Homo sapiens (Human), UniProt P29275). The test is described as follows: cAMP inhibition assay in hA2b/CHO cells, 10 μM adenosine.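 Also: cells exposed to compound 30 min at 37 °C, then stimulated with adenosine a further 30 min, cAMP read after 60 min at room temperature.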 The note with it: read-out: cAMP & FLIPR IC50 (nM) hA2b. The format is cell-based.

hA2b/CHO, sequence (P29275 whole entry): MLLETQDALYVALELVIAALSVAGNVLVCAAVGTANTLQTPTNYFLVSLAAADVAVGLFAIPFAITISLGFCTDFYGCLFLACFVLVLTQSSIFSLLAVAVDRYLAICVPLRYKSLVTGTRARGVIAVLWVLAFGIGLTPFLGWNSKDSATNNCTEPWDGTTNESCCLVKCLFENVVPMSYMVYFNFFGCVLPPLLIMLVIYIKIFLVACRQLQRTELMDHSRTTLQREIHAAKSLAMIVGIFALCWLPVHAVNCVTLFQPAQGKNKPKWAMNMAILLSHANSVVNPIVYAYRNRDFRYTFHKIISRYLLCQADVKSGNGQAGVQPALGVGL
mA2a/CHO, sequence (Q60613 whole entry): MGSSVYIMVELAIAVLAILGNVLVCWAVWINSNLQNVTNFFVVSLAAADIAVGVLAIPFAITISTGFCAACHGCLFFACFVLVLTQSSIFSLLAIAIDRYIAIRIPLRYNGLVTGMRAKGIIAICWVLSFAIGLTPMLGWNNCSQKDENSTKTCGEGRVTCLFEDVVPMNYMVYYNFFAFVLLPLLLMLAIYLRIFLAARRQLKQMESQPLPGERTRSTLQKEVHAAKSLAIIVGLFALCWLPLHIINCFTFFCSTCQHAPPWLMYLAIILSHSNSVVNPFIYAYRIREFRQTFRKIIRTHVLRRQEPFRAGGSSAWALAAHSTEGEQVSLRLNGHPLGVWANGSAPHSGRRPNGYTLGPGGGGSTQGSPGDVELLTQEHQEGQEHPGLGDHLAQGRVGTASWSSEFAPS
hADORA1/CHO (hA1 expressing) cells, sequence (P30542 whole entry): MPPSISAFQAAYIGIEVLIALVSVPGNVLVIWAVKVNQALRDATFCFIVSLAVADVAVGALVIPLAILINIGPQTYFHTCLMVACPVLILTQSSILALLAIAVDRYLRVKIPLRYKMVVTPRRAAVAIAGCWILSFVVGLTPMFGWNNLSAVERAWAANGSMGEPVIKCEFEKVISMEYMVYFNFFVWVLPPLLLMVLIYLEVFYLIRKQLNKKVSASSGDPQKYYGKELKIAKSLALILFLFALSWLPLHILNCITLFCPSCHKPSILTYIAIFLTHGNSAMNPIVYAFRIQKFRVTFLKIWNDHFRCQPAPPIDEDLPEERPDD
Procedure for hA2a/CHO: (§1) hA2a/CHO, hA2b/CHO, hA3/CHO and mA2a/CHO (Genscript) were plated at 5×10^3 cells/well into 384-well polystyrene plates at the day of experiment. Compounds were pre-incubated with cells for 30 min at 37° C., 5% CO2. Then 10 μM adenosine was added to the cells and incubated for 30 min at 37° C., 5% CO2. Detection reagent (CISBIO) was added and the plates were incubated for 60 min at room temperature. The signal was captured by Envision.
Procedure for hA2b/CHO: as §1
Procedure for mA2a/CHO: as §1

On to `Cc1cnc2ccc(-c3nc(C(=O)NCCN(C)C)c(N)nc3-c3ncco3)cn12` [Example 153, 3-amino-N-(2-(dimethylamino)ethyl)-6-(3-methylimidazo[1,2-a]pyridin-6-yl)-5-(oxazol-2-yl)pyrazine-2-carboxamide], for which the IC50 (as a rule, the concentration that inhibits the measured activity by half) turned out to be 120 nM at mA2a/CHO, 19 nM on hA2a/CHO, 10000 nM in test [1] and 592 nM on hA2b/CHO.

Take `Cc1cnc2ccc(-c3nc(C(=O)NCC4(N(C)C)CC4)c(N)nc3-c3ccc(F)cc3)cn12` [Example 154, 3-amino-N-[[1-(dimethylamino)cyclopropyl]methyl]-5-(4-fluorophenyl)-6-[3-methylimidazo[1,2-a]pyridin-6-yl]pyrazine-2-carboxamide]: the half-maximal inhibitory concentration (IC50) at mA2a/CHO was 121 nM; at hA2a/CHO, 11 nM; in test [1], 10000 nM; on hA2b/CHO, 1150 nM.

In the case of `Cc1cnc2ccc(-c3nc(C(=O)NCC4CC4)c(N)nc3-c3ncco3)cn12` [Example 155, 3-amino-N-(cyclopropylmethyl)-6-(3-methylimidazo[1,2-a]pyridin-6-yl)-5-(oxazol-2-yl)pyrazine-2-carboxamide], the IC50 was 12 nM on mA2a/CHO, 0.6 nM on hA2a/CHO, 3650 nM in test [1] and 188 nM on hA2b/CHO.

Regarding `Cc1cnc2ccc(-c3nc(CNC(=O)[C@@H]4CCCN4C)c(N)nc3-c3ccc(F)cc3)cn12` [Example 156, (2S)—N-[[3-amino-5-(4-fluorophenyl)-6-[3-methylimidazo[1,2-a]pyridin-6-yl]pyrazin-2-yl]methyl]-1-methylpyrrolidine-2-carboxamide], the IC50 on mA2a/CHO is 41 nM; on hA2a/CHO, 4.4 nM; in test [1], 83 nM; on hA2b/CHO, 1200 nM.

`Cc1cnc2ccc(-c3nc(C(=O)NCCn4cccn4)c(N)nc3-c3ncco3)cn12` [Example 158, N-(2-(1H-pyrazol-1-yl)ethyl)-3-amino-6-(3-methylimidazo[1,2-a]pyridin-6-yl)-5-(oxazol-2-yl)pyrazine-2-carboxamide]: the half-inhibitory concentration (IC50) on mA2a/CHO was 3.46 nM; at hA2a/CHO, 1.27 nM; in test [1] it was 756 nM; at hA2b/CHO, 167 nM.

In the case of `COC[C@@H](C)NC(=O)c1nc(-c2ccc3ncc(C)n3c2)c(-c2ncco2)nc1N` [Example 159, (R)-3-amino-N-(1-methoxypropan-2-yl)-6-(3-methylimidazo[1,2-a]pyridin-6-yl)-5-(oxazol-2-yl)pyrazine-2-carboxamide], the IC50 at mA2a/CHO is 13.2 nM; at hA2a/CHO, 5.31 nM; in test [1], > 10000 nM; at hA2b/CHO, 1640 nM.

Turning to `Cc1cnc2ccc(-c3nc(C(=O)NC[C@@H]4CC(F)(F)CN4C)c(N)nc3-c3ncco3)cn12` [Example 161, (S)-3-amino-N-((4,4-difluoro-1-methylpyrrolidin-2-yl)methyl)-6-(3-methylimidazo[1,2-a]pyridin-6-yl)-5-(oxazol-2-yl)pyrazine-2-carboxamide], the 50% inhibitory concentration (IC50) at mA2a/CHO was 0.8 nM; on hA2a/CHO, 0.95 nM; in test [1], 34 nM; at hA2b/CHO, 98 nM.

Take `Cc1cnc2ccc(-c3nc(C(=O)NC[C@H]4CC(F)(F)CN4C)c(N)nc3-c3ncco3)cn12` [Example 162, (R)-3-amino-N-((4,4-difluoro-1-methylpyrrolidin-2-yl)methyl)-6-(3-methylimidazo[1,2-a]pyridin-6-yl)-5-(oxazol-2-yl)pyrazine-2-carboxamide]: the IC50 came out at 8.12 nM on mA2a/CHO, 0.71 nM at hA2a/CHO, 794 nM in test [1] and 147 nM at hA2b/CHO.

With `Cc1cnc2ccc(-c3nc(C(=O)NCc4cccc(N5CC6(CCN6C)C5)n4)c(N)nc3-c3ncco3)cn12` [Example 171, 3-amino-N-[(6-[1-methyl-1,6-diazaspiro[3.3]heptan-6-yl]pyridin-2-yl)methyl]-6-[3-methylimidazo[1,2-a]pyridin-6-yl]-5-(1,3-oxazol-2-yl)pyrazine-2-carboxamide], the half-maximal inhibitory concentration (IC50) at mA2a/CHO amounted to 15 nM; at hA2a/CHO, 1 nM; in test [1] it was 589 nM; on hA2b/CHO, 228 nM.

In the case of `Cc1cnc2ccc(-c3nc(C(=O)N[C@H]4CCN(C)C4)c(N)nc3-c3ccc(F)cc3)cn12` [Example 200-2, (S)-3-amino-5-(4-fluorophenyl)-6-(3-methylimidazo[1,2-a]pyridin-6-yl)-N-(1-methylpyrrolidin-3-yl)pyrazine-2-carboxamide], the half-inhibitory concentration (IC50) at mA2a/CHO was 169 nM; at hA2a/CHO it was 12 nM; in test [1] it was > 10000 nM; on hA2b/CHO, 3540 nM.

In the case of `Cc1ccn(-c2nc(N)c(C(=O)NC[C@H]3CCCN3C)nc2-c2ccc3ncc(C)n3c2)n1` [Example 201-2, (R)-3-amino-5-(3-methyl-1H-pyrazol-1-yl)-6-(3-methylimidazo[1,2-a]pyridin-6-yl)-N-((1-methylpyrrolidin-2-yl)methyl)pyrazine-2-carboxamide], the IC50 on mA2a/CHO was 519 nM; at hA2a/CHO, 29 nM; in test [1], > 10000 nM; on hA2b/CHO it was > 10000 nM.

Consider `Cc1cnc2ccc(-c3nc(C(=O)N4CC[C@@H](N(C)C)C4)c(N)nc3-c3ccc(F)cc3)cn12` [Example 203-1, (R)-(3-amino-5-(4-fluorophenyl)-6-(3-methylimidazo[1,2-a]pyridin-6-yl)pyrazin-2-yl)(3-(dimethylamino)pyrrolidin-1-yl)methanone], for which the half-maximal inhibitory concentration (IC50) was 161 nM at mA2a/CHO, 15 nM at hA2a/CHO, 91 nM in test [1] and > 10000 nM on hA2b/CHO.

Consider `COC[C@H]1CCCN1C(=O)c1nc(-c2ccc3ncc(C)n3c2)c(-c2ccc(F)cc2)nc1N` [Example 204-1, (R)-(3-amino-5-(4-fluorophenyl)-6-(3-methylimidazo[1,2-a]pyridin-6-yl)pyrazin-2-yl)(2-(methoxymethyl)pyrrolidin-1-yl)methanone], for which the IC50 at mA2a/CHO is 249 nM; at hA2a/CHO, 49 nM; in test [1] it was 294 nM; on hA2b/CHO it was > 10000 nM.

As for `Cc1cnc2ccc(-c3nc(C(=O)NCCc4nccn4C)c(N)nc3-c3ncco3)cn12` [Example 205, 3-amino-N-(2-(1-methyl-1H-imidazol-2-yl)ethyl)-6-(3-methylimidazo[1,2-a]pyridin-6-yl)-5-(oxazol-2-yl)pyrazine-2-carboxamide], the IC50 came to 7.5 nM at mA2a/CHO, 2 nM at hA2a/CHO, 153 nM in test [1] and 67 nM on hA2b/CHO.

In the case of `Cc1cnc2ccc(-c3nc(C(=O)NCCN4CCCC4=O)c(N)nc3-c3ncco3)cn12` [Example 208, 3-amino-6-(3-methylimidazo[1,2-a]pyridin-6-yl)-5-(oxazol-2-yl)-N-(2-(2-oxopyrrolidin-1-yl)ethyl)pyrazine-2-carboxamide], the IC50 turned out to be 19 nM on mA2a/CHO, 8.9 nM on hA2a/CHO, 9540 nM in test [1] and 1230 nM at hA2b/CHO.

On to `Cc1cnc2ccc(-c3nc(C(=O)NCCC(=O)N4CCCCC4)c(N)nc3-c3ncco3)cn12` [Example 215, 3-amino-6-(3-methylimidazo[1,2-a]pyridin-6-yl)-5-(oxazol-2-yl)-N-(3-oxo-3-(piperidin-1-yl)propyl)pyrazine-2-carboxamide], for which the IC50 came out at 9.6 nM at mA2a/CHO, 12 nM on hA2a/CHO, 891 nM in test [1] and 568 nM on hA2b/CHO.

With `CNC(=O)CCNC(=O)c1nc(-c2ccc3ncc(C)n3c2)c(-c2ncco2)nc1N` [Example 225, 3-amino-N-(3-(methylamino)-3-oxopropyl)-6-(3-methylimidazo[1,2-a]pyridin-6-yl)-5-(oxazol-2-yl)pyrazine-2-carboxamide], the IC50 on mA2a/CHO was 177 nM; at hA2a/CHO, 32 nM; in test [1], > 10000 nM; at hA2b/CHO, 254 nM.

In the case of `Cc1cnc2ccc(-c3nc(C(=O)NC[C@@H]4CCCO4)c(N)nc3-n3nccn3)cn12` [Example 226, (S)-3-amino-6-(3-methylimidazo[1,2-a]pyridin-6-yl)-N-((tetrahydrofuran-2-yl)methyl)-5-(2H-1,2,3-triazol-2-yl) pyrazine-2-carboxamide], the IC50 at mA2a/CHO was determined as 30 nM; at hA2a/CHO, 3 nM; in test [1], 947 nM; at hA2b/CHO it was 177 nM.

Regarding `Cc1cnc2ccc(-c3nc(C(=O)NCCN(C)c4ccccn4)c(N)nc3-c3ncco3)cn12` [Example 240, 3-amino-N-(2-(methyl(pyridin-2-yl)amino)ethyl)-6-(3-methylimidazo[1,2-a]pyridin-6-yl)-5-(oxazol-2-yl)pyrazine-2-carboxamide], the IC50 was determined as 65 nM on mA2a/CHO, 18 nM at hA2a/CHO, 108 nM in test [1] and 521 nM on hA2b/CHO.

Take `Cc1cnc2ccc(-c3nc(C(=O)NC[C@H]4CCOC4)c(N)nc3-n3nccn3)cn12` [Example 242, (R)-3-amino-6-(3-methylimidazo[1,2-a]pyridin-6-yl)-N-((tetrahydrofuran-3-yl)methyl)-5-(2H-1,2,3-triazol-2-yl) pyrazine-2-carboxamide]: the IC50 on mA2a/CHO amounted to 51 nM; on hA2a/CHO, 2.9 nM; in test [1], 294 nM; on hA2b/CHO, 683 nM.

In the case of `COCCNC(=O)c1nc(-c2ccc3ncc(C)n3c2)c(-n2nccn2)nc1N` [Example 243, 3-amino-N-(2-methoxyethyl)-6-(3-methylimidazo[1,2-a]pyridin-6-yl)-5-(2H-1,2,3-triazol-2-yl)pyrazine-2-carboxamide], the half-maximal inhibitory concentration (IC50) at mA2a/CHO amounted to 30 nM; at hA2a/CHO it was 7.6 nM; in test [1], 92 nM; at hA2b/CHO, 181 nM.

Values taken from patent publication US10898481B2 (priority 2018, dated 2021).
